Experimental data from patent US6476060B2, “4,5-dihydro-1H-pyrazole derivatives having CB1-antagonistic activity” (Solvay Pharmaceuticals, B.V., priority 2000, dated 2002).

| melting point [°C] | SMILES |
| --- | --- |
| 94 to 96 | O=S(=O)(NCCN1CC(c2ccccc2)C(c2ccc(Cl)cc2)=N1)c1cccc(C(F)(F)F)c1 (stereo not drawn) [IX, N-[2-(3-(4-Chlorophenyl)-4,5-dihydro-4-phenyl-1H-pyrazol-1-yl)ethyl]-3-(trifluoromethyl)benzenesulfonamide] |
| 118 to 119 | O=S(=O)(CCN1CC(c2ccccc2)C(c2ccc(Cl)cc2)=N1)c1cccc(C(F)(F)F)c1 (stereo not drawn) [VIII, 3-(4-Chlorophenyl)-4,5-dihydro-4-phenyl-1-[2-((3-(trifluoromethyl)phenyl)-sulfonyl)ethyl]-1H-pyrazole] |
| 180 to 182 | CNC(=NC(=O)c1cccc(C(F)(F)F)c1)N1CC(c2ccccc2)C(c2ccc(Cl)cc2)=N1 (stereo not drawn) [V, N-Methyl-N′-(3-(trifluoromethyl)benzoyl)-3-(4-chlorophenyl)-4,5-dihydro-4-phenyl-1H-pyrazole-1-carboxamidine] |
